Test results: US12539292B2, “BRM targeting compounds and associated methods of use” (Arvinas Operations, Inc., priority 2018, dated 2026)

biological target: T1, BRM (Homo sapiens, UniProt P51531); assay: In-cell Western screen of BRM degradation in SW1573 cells (Dmax and DC50); assay type: cell-based; details: % degraded; when tested at the top concentration of between 0.3 and 10 μM
T1 construct: In-Cell Western Screen of BRM Degradation in SW1573 Cells; endogenous in cells; host or cells: SW1573
In short: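 Adherent SW1573 cultures exposed to test compounds for 18-20 h were processed for in-cell Western after PFA fixation and detergent permeabilization. BRM degradation was reported as Dmax and DC50.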

T1 sequence (P51531 whole entry): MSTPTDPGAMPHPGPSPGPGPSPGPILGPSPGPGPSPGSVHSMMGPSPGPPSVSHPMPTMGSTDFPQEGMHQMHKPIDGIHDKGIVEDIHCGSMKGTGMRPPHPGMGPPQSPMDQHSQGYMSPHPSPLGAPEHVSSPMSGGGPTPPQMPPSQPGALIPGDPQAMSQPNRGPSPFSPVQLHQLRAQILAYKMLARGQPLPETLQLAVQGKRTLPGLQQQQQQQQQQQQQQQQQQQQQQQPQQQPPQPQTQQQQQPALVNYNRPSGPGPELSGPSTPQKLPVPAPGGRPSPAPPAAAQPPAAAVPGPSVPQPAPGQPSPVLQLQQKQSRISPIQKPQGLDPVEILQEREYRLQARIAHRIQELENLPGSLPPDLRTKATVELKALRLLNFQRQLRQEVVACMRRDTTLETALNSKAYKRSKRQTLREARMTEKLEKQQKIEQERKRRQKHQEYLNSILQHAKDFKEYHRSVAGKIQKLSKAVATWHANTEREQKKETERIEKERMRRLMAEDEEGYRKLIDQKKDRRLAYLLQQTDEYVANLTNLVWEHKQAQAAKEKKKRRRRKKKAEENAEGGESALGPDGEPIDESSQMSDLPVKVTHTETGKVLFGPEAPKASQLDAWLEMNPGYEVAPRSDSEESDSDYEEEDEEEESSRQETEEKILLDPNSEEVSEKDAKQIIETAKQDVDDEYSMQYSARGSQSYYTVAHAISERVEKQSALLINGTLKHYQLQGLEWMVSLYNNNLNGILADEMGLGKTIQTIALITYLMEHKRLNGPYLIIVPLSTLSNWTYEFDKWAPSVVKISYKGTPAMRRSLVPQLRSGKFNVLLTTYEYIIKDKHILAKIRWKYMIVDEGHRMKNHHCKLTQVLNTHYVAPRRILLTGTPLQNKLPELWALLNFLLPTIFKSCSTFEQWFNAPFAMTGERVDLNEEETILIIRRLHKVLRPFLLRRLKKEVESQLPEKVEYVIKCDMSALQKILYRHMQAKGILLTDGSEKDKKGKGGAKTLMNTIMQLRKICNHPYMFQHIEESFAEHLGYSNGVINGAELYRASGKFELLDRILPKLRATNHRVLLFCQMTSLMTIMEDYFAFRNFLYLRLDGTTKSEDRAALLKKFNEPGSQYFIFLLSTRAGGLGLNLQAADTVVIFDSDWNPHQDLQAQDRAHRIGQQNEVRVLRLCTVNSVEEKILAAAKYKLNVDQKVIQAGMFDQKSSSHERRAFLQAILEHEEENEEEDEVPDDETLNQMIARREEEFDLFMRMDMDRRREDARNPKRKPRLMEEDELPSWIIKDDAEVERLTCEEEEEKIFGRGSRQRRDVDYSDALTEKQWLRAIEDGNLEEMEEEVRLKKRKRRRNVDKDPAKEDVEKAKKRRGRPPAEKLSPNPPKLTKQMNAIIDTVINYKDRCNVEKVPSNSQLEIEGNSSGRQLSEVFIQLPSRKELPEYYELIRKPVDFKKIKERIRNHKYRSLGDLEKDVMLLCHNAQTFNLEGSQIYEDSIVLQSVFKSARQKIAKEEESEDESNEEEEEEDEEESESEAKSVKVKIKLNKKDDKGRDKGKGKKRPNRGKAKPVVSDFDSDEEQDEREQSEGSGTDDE

Row | SMILES | BRM Dmax (%)
1 | Cc1ncsc1-c1ccc([C@H](C)NC(=O)[C@@H]2C[C@@H](O)CN2C(=O)[C@@H](NC(=O)CN2CCC(OC3CC(Oc4cc(N5C6CC[C@@H]5CN(c5cc(-c7ccccc7O)nnc5N)C6)ccn4)C3)CC2)C(C)(C)C)cc1 (stereo partly drawn) [compound 520, (2S,4R)-1-((2S)-2-(2-(4-((1r,3S)-3-((4-(3-(3-amino-6-(2-hydroxyphenyl)pyridazin-4-yl)-3,8-diazabicyclo[3.2.1]octan-8-yl)pyridin-2-yl)oxy)cyclobutoxy)pipcridin-1-yl)acetamido)-3,3-dimethylbutanoyl)-4-hydroxy-N-((S)-1-(4-(4-methylthiazol-5-yl)phenyl)ethyl)pyrrolidine-2-carboxamide] | A (A > 75)

same assay, conditions: BRM degradation; read-out: BRM DC50

Row | SMILES | DC50 [nM]
2 | Cc1ncsc1-c1ccc([C@H](C)NC(=O)[C@@H]2C[C@@H](OP(=O)(O)O)CN2C(=O)[C@@H](c2cc(OCCN3CCC(O[C@H]4C[C@H](Oc5cc(N6C7CCC6CN(c6cc(-c8ccccc8OP(=O)(O)O)nnc6N)C7)ccn5)C4)CC3)no2)C(C)C)cc1 [compound 517, (3R,5S)-1-((2R)-2-(3-(2-(4-((1r,3R)-3-((4-(3-(3-amino-6-(2-(phosphonooxy)phenyl)pyridazin-4-yl)-3,8-diazabicyclo[3.2.1]octan-8-yl)pyridin-2-yl)oxy)cyclobutoxy)piperidin-1-yl)ethoxy)isoxazol-5-yl)-3-methylbutanoyl)-5-(((S)-1-(4-(4-methylthiazol-5-yl)phenyl)ethyl)carbamoyl)pyrrolidin-3-yl dihydrogen phosphate] | < 2.5
3 | Cc1ncsc1-c1ccc([C@H](C)NC(=O)[C@@H]2C[C@@H](O)CN2C(=O)[C@H](c2cc(N3CC(CN4CC(COc5cc(N6C7CCC6CN(c6cc(-c8ccccc8O)nnc6N)C7)ccn5)C4)C3)no2)C(C)C)cc1 [compound 518, (2S,4R)-1-((2S)-2-(3-(3-((3-(((4-(3-(3-amino-6-(2-hydroxyphenyl)pyridazin-4-yl)-3,8-diazabicyclo[3.2.1]octan-8-yl)pyridin-2-yl)oxy)methyl)azetidin-1-yl)methyl)azetidin-1-yl)isoxazol-5-yl)-3-methylbutanoyl)-4-hydroxy-N-((S)-1-(4-(4-methylthiazol-5-yl)phenyl)ethyl)pyrrolidine-2-carboxamide] | > 30
4 | Cc1ncsc1-c1ccc([C@H](C)NC(=O)[C@@H]2C[C@@H](O)CN2C(=O)[C@@H](c2cc(N3CC(CN4CC(COc5cc(N6C7CCC6CN(c6cc(-c8ccccc8O)nnc6N)C7)ccn5)C4)C3)no2)C(C)C)cc1 [compound 519, (2S,4R)-1-((2R)-2-(3-(3-((3-(((4-(3-(3-amino-6-(2-hydroxyphenyl)pyridazin-4-yl)-3,8-diazabicyclo[3.2.1]octan-8-yl)pyridin-2-yl)oxy)methyl)azetidin-1-yl)methyl)azetidin-1-yl)isoxazol-5-yl)-3-methylbutanoyl)-4-hydroxy-N-((S)-1-(4-(4-methylthiazol-5-yl)phenyl)ethyl)pyrrolidine-2-carboxamide] | > 30
5 | Cc1ncsc1-c1ccc([C@H](C)NC(=O)[C@@H]2C[C@@H](O)CN2C(=O)[C@@H](NC(=O)CN2CCC(OC3CC(Oc4cc(N5C6CC[C@@H]5CN(c5cc(-c7ccccc7O)nnc5N)C6)ccn4)C3)CC2)C(C)(C)C)cc1 (stereo partly drawn) [compound 520, (2S,4R)-1-((2S)-2-(2-(4-((1r,3S)-3-((4-(3-(3-amino-6-(2-hydroxyphenyl)pyridazin-4-yl)-3,8-diazabicyclo[3.2.1]octan-8-yl)pyridin-2-yl)oxy)cyclobutoxy)pipcridin-1-yl)acetamido)-3,3-dimethylbutanoyl)-4-hydroxy-N-((S)-1-(4-(4-methylthiazol-5-yl)phenyl)ethyl)pyrrolidine-2-carboxamide] | < 2.5
6 | Cc1ncsc1-c1ccc([C@H](C)NC(=O)[C@@H]2C[C@@H](O)CN2C(=O)[C@H](c2cc(N3CCN(CC#Cc4ncc(O[C@H]5C[C@H](Oc6cc(N7C8CCC7CN(c7cc(-c9ccccc9O)nnc7N)C8)ccn6)C5)cn4)CC3)no2)C(C)C)cc1 [compound 521, (2S,4R)-1-((2S)-2-(3-(4-(3-(5-((1r,3r)-3-((4-(3-(3-amino-6-(2-hydroxyphenyl)pyridazin-4-yl)-3,8-diazabicyclo[3.2.1]octan-8-yl)pyridin-2-yl)oxy)cyclobutoxy)pyrimidin-2-yl)prop-2-yn-1-yl)piperazin-1-yl)isoxazol-5-yl)-3-methylbutanoyl)-4-hydroxy-N-((S)-1-(4-(4-methylthiazol-5-yl)phenyl)ethyl)pyrrolidine-2-carboxamide] | > 30
7 | Cc1ncsc1-c1ccc([C@H](C)NC(=O)[C@@H]2C[C@@H](O)CN2C(=O)[C@@H](c2cc(N3CCN(CC#Cc4ncc(O[C@H]5C[C@H](Oc6cc(N7C8CCC7CN(c7cc(-c9ccccc9O)nnc7N)C8)ccn6)C5)cn4)CC3)no2)C(C)C)cc1 [compound 522, (2S,4R)-1-((2R)-2-(3-(4-(3-(5-((1r,3r)-3-((4-(3-(3-amino-6-(2-hydroxyphenyl)pyridazin-4-yl)-3,8-diazabicyclo[3.2.1]octan-8-yl)pyridin-2-yl)oxy)cyclobutoxy)pyrimidin-2-yl)prop-2-yn-1-yl)piperazin-1-yl)isoxazol-5-yl)-3-methylbutanoyl)-4-hydroxy-N-((S)-1-(4-(4-methylthiazol-5-yl)phenyl)ethyl)pyrrolidine-2-carboxamide] | < 2.5
8 | Cc1cc([C@@H](C(=O)N2C[C@H](O)C[C@H]2C(=O)N[C@H](COCCOCCNc2ccc(-c3ccccc3O)nn2)c2ccc(-c3scnc3C)cc2)C(C)C)on1 [compound 523, (2S,4R)-4-hydroxy-N-((S)-2-(2-(2-((6-(2-hydroxyphenyl)pyridazin-3-yl)amino)ethoxy)ethoxy)-1-(4-(4-methylthiazol-5-yl)phenyl)ethyl)-1-((S)-3-methyl-2-(3-methylisoxazol-5-yl)butanoyl)pyrrolidine-2-carboxamide] | > 30
9 | Cc1cc([C@H](C(=O)N2C[C@H](O)C[C@H]2C(=O)N[C@H](COCCOCCNc2ccc(-c3ccccc3O)nn2)c2ccc(-c3scnc3C)cc2)C(C)C)on1 [compound 524, (2S,4R)-4-hydroxy-N-((S)-2-(2-(2-((6-(2-hydroxyphenyl)pyridazin-3-yl)amino)ethoxy)ethoxy)-1-(4-(4-methylthiazol-5-yl)phenyl)ethyl)-1-((R)-3-methyl-2-(3-methylisoxazol-5-yl)butanoyl)pyrrolidine-2-carboxamide] | > 30
10 | Cc1cc([C@@H](C(=O)N2C[C@H](O)C[C@H]2C(=O)N[C@@H](COCCOCCNc2ccc(-c3ccccc3O)nn2)c2ccc(-c3scnc3C)cc2)C(C)C)on1 [compound 525, (2S,4R)-4-hydroxy-N-((R)-2-(2-(2-((6-(2-hydroxyphenyl)pyridazin-3-yl)amino)ethoxy)ethoxy)-1-(4-(4-methylthiazol-5-yl)phenyl)ethyl)-1-((S)-3-methyl-2-(3-methylisoxazol-5-yl)butanoyl)pyrrolidine-2-carboxamide] | > 30
11 | Cc1cc([C@H](C(=O)N2C[C@H](O)C[C@H]2C(=O)N[C@@H](COCCOCCNc2ccc(-c3ccccc3O)nn2)c2ccc(-c3scnc3C)cc2)C(C)C)on1 [compound 526, (2S,4R)-4-hydroxy-N-((R)-2-(2-(2-((6-(2-hydroxyphenyl)pyridazin-3-yl)amino)ethoxy)ethoxy)-1-(4-(4-methylthiazol-5-yl)phenyl)ethyl)-1-((R)-3-methyl-2-(3-methylisoxazol-5-yl)butanoyl)pyrrolidine-2-carboxamide] | > 30
12 | Cc1cc([C@@H](C(=O)N2C[C@H](O)C[C@H]2C(=O)N[C@H](COCCCCCc2cc(-c3ccccc3O)nnc2N)c2ccc(-c3scnc3C)cc2)C(C)C)on1 [compound 527, (2S,4R)-N-((S)-2-((5-(3-amino-6-(2-hydroxyphenyl)pyridazin-4-yl)pentyl)oxy)-1-(4-(4-methylthiazol-5-yl)phenyl)ethyl)-4-hydroxy-1-((S)-3-methyl-2-(3-methylisoxazol-5-yl)butanoyl)pyrrolidine-2-carboxamide] | > 30
13 | Cc1cc([C@H](C(=O)N2C[C@H](O)C[C@H]2C(=O)N[C@H](COCCCCCc2cc(-c3ccccc3O)nnc2N)c2ccc(-c3scnc3C)cc2)C(C)C)on1 [compound 528, (2S,4R)-N-((S)-2-((5-(3-amino-6-(2-hydroxyphenyl)pyridazin-4-yl)pentyl)oxy)-1-(4-(4-methylthiazol-5-yl)phenyl)ethyl)-4-hydroxy-1-((R)-3-methyl-2-(3-methylisoxazol-5-yl)butanoyl)pyrrolidine-2-carboxamide] | > 30
14 | Cc1cc([C@@H](C(=O)N2C[C@H](O)C[C@H]2C(=O)N[C@@H](COCCCCCc2cc(-c3ccccc3O)nnc2N)c2ccc(-c3scnc3C)cc2)C(C)C)on1 [compound 529, (2S,4R)-N-((R)-2-((5-(3-amino-6-(2-hydroxyphenyl)pyridazin-4-yl)pentyl)oxy)-1-(4-(4-methylthiazol-5-yl)phenyl)ethyl)-4-hydroxy-1-((S)-3-methyl-2-(3-methylisoxazol-5-yl)butanoyl)pyrrolidine-2-carboxamide] | > 30
15 | Cc1cc([C@H](C(=O)N2C[C@H](O)C[C@H]2C(=O)N[C@@H](COCCCCCc2cc(-c3ccccc3O)nnc2N)c2ccc(-c3scnc3C)cc2)C(C)C)on1 [compound 530, (2S,4R)-N-((R)-2-((5-(3-amino-6-(2-hydroxyphenyl)pyridazin-4-yl)pentyl)oxy)-1-(4-(4-methylthiazol-5-yl)phenyl)ethyl)-4-hydroxy-1-((R)-3-methyl-2-(3-methylisoxazol-5-yl)butanoyl)pyrrolidine-2-carboxamide] | > 30
16 | Cc1ncsc1-c1ccc([C@H](CCC#N)NC(=O)[C@@H]2C[C@@H](O)CN2C(=O)[C@H](c2cc(OCCN3CCC(O[C@H]4C[C@H](Oc5cc(N6C7CCC6CN(c6cc(-c8ccccc8O)nnc6N)C7)ccn5)C4)CC3)no2)C(C)C)cc1 [compound 532, (2S,4R)-1-((2S)-2-(3-(2-(4-((1r,3S)-3-((4-(3-(3-amino-6-(2-hydroxyphenyl)pyridazin-4-yl)-3,8-diazabicyclo[3.2.1]octan-8-yl)pyridin-2-yl)oxy)cyclobutoxy)piperidin-1-yl)ethoxy)isoxazol-5-yl)-3-methylbutanoyl)-N-((S)-3-cyano-1-(4-(4-methylthiazol-5-yl)phenyl)propyl)-4-hydroxypyrrolidine-2-carboxamide] | > 30

same assay, conditions: SW1573; % degraded; when tested at the top concentration of between 0.3 and 10 μM; read-out: BRM Dmax (%)

Row | SMILES | Dmax [%]
17 | Cc1ncsc1-c1ccc([C@H](C)NC(=O)[C@@H]2C[C@@H](OP(=O)(O)O)CN2C(=O)[C@@H](c2cc(OCCN3CCC(O[C@H]4C[C@H](Oc5cc(N6C7CCC6CN(c6cc(-c8ccccc8OP(=O)(O)O)nnc6N)C7)ccn5)C4)CC3)no2)C(C)C)cc1 [compound 517, (3R,5S)-1-((2R)-2-(3-(2-(4-((1r,3R)-3-((4-(3-(3-amino-6-(2-(phosphonooxy)phenyl)pyridazin-4-yl)-3,8-diazabicyclo[3.2.1]octan-8-yl)pyridin-2-yl)oxy)cyclobutoxy)piperidin-1-yl)ethoxy)isoxazol-5-yl)-3-methylbutanoyl)-5-(((S)-1-(4-(4-methylthiazol-5-yl)phenyl)ethyl)carbamoyl)pyrrolidin-3-yl dihydrogen phosphate] | > 75
18 | Cc1ncsc1-c1ccc([C@H](C)NC(=O)[C@@H]2C[C@@H](O)CN2C(=O)[C@@H](c2cc(N3CCN(CC#Cc4ncc(O[C@H]5C[C@H](Oc6cc(N7C8CCC7CN(c7cc(-c9ccccc9O)nnc7N)C8)ccn6)C5)cn4)CC3)no2)C(C)C)cc1 [compound 522, (2S,4R)-1-((2R)-2-(3-(4-(3-(5-((1r,3r)-3-((4-(3-(3-amino-6-(2-hydroxyphenyl)pyridazin-4-yl)-3,8-diazabicyclo[3.2.1]octan-8-yl)pyridin-2-yl)oxy)cyclobutoxy)pyrimidin-2-yl)prop-2-yn-1-yl)piperazin-1-yl)isoxazol-5-yl)-3-methylbutanoyl)-4-hydroxy-N-((S)-1-(4-(4-methylthiazol-5-yl)phenyl)ethyl)pyrrolidine-2-carboxamide] | > 75
